Experimental data: US8269000B2, “Substituted pyrimidine and triazine compounds” (Gruenenthal GmbH, priority 2008, dated 2012)

Biological target: T1, rat B1R (Rattus norvegicus, UniProt P97583)
T1 construct: expressed in transfected cells; host or cells: CHO K1 cells
T1 sequence (P97583 1-337): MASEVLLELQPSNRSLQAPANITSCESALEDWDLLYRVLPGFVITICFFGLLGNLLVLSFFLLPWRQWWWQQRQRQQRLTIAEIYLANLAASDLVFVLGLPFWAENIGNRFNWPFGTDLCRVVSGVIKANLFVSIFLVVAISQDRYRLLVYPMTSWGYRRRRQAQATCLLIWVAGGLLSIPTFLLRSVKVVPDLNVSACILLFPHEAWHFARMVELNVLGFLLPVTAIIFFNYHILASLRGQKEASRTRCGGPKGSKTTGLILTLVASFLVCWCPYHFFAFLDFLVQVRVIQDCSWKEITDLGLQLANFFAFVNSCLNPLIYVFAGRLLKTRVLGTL
Test: FLIPR Ca2+ functional study on bradykinin receptor 1 (rB1R CHO K1 cells)
Type: cell-based
Settings: % inhibition rat B1R at 10 μM
Experimental: The agonistic or antagonistic activity of substances can be quantified on the bradykinin receptor 1 (B1R) of the species human and rat using ectopically expressing cell lines (CHO K1 cells) and with the aid of a Ca^2+-sensitive dye (Fluo-4) using a fluorescent imaging plate reader (FLIPR). The indication in % activation is based on the Ca^2+ signal after addition of Lys-Des-Arg^9-bradykinin (0.5 nM) or Des-Arg^9-bradykinin (100 nM). Antagonists lead to suppression of the Ca^2+ influx after the addition of the agonist. % Inhibition compared with the maximum achievable inhibition is indicated.
The agonistic or antagonistic activity of substances can be determined on the bradykinin receptor 1 (B1R) of the species human and rat using the following assay. According to this assay, the Ca^2+ influx through the channel is quantified with the aid of a Ca^2+-sensitive dye (Fluo-4 type, Molecular Probes Europe BV, Leiden, Netherlands) using a Fluorescent Imaging Plate Reader (FLIPR, Molecular Devices, Sunnyvale, USA).
Chinese hamster ovary cells (CHO K1 cells) which have been stably transfected with the human B1R gene (hB1R cells) or with the B1R gene of the rat (rB1R cells) are used. For functional studies, the cells are plated out on black 96-well plates having a clear base (BD Biosciences, Heidelberg, Germany or Greiner, Frickenhausen, Germany) in a density of 20,000-35,000 cells/well. The cells are left overnight at 37° C. and with 5% CO2 in culture medium (hB1R cells: Nutrient Mixture Ham's F12, Gibco Invitrogen GmbH, Karlsruhe, Germany or DMEM, Sigma-Aldrich, Taufkirchen, Germany; rB1R cells: D-MEM/F12, Gibco Invitrogen GmbH, Karlsruhe, Germany), with 10 vol.% FBS (fetal bovine serum, Gibco Invitrogen GmbH, Karlsruhe, Germany or PAN Biotech GmbH, Aidenbach, Germany). On the following day, the cells are loaded for 60 minutes at 37° C. with 2.13 μM Fluo-4 (Molecular Probes Europe BV, Leiden, Netherlands) in HBSS buffer (Hank's buffered saline solution, Gibco Invitrogen GmbH, Karlsruhe, Germany) […] (Sigma-Aldrich, Taufkirchen, Germany) and 10 mM HEPES (Sigma-Aldrich, Taufkirchen, Germany). The plates are then washed twice with HBSS buffer, and HBSS buffer additionally containing 0.1% BSA (bovine serum albumin; Sigma-Aldrich, Taufkirchen, Germany), 5.6 mM glucose and 0.05% gelatin (Merck KGaA, Darmstadt, Germany) is added to the plates. After incubation for a further 20 minutes at room temperature, the plates are inserted into the FLIPR for Ca^2+ measurement. Alternatively, washing is carried out with buffer A (15 mM HEPES, 80 mM NaCl, 5 mM KCl, 1.2 mM CaCl2, 0.7 mM MgSO4, 2 g/l glucose, 2.5 mM probenecid) followed by loading with buffer A with added 2.5 μM Fluo-4 and 0.025% Pluronic F127 (Sigma-Aldrich, Taufkirchen, Germany). The cells are then washed twice with buffer A and incubated for 30 minutes at room temperature with buffer A additionally containing 0.05% BSA and 0.05% gelatin and are then inserted into the FLIPR for Ca^2+ measurement. The Ca^2+-dependent fluorescence is measured before and after the addition of substances (λex=488 nm, λem=540 nm). Quantification is carried out by measuring the highest fluorescence intensity (FC, fluorescence counts) over time.
The FLIPR protocol consists of two substance additions. Test substances (10 μM) are first pipetted onto the cells and the Ca^2+ influx is compared with the control (hB1R: Lys-Des-Arg^9-bradykinin>=50 nM; rB1R: Des-Arg^9-bradykinin 10 μM). This gives the activation in %, based on the Ca^2+ signal after addition of Lys-Des-Arg^9-bradykinin (>=50 nM) or Des-Arg^9-bradykinin (10 μM). After 10-20 minutes' incubation, Lys-Des-Arg^9-bradykinin (hB1R) or Des-Arg^9-bradykinin (rB1R) is applied in the concentration of the EC80, and the influx of Ca^2+ is likewise determined. Antagonists lead to suppression of the Ca^2+ influx. The % inhibition compared with the maximum achievable inhibition is calculated. […]

| Structure (SMILES) | % inh. (rat B1R) 10 μM [%] |
| --- | --- |
| COc1cc(C)c(S(=O)(=O)N(C)CCOc2nccc(N3CCC(CCN4CCCCC4)CC3)n2)c(C)c1 [G_CC-031] | 104 |
| COc1cc(C)c(S(=O)(=O)N2CCC[C@H]2COc2nccc(N3CCC(CCN4CCCCC4)CC3)n2)c(C)c1 [G_CC-037] | 102 |
| COc1cc(C)c(S(=O)(=O)N2CCC[C@@H]2COc2nccc(N3CCC(CNC(=O)c4ccncc4)(N4CCN(C)CC4)CC3)n2)c(C)c1 [G_CC-054, N-[[1-[2-[[(2R)-1-(4-methoxy-2,6-dimethylphenyl)sulfonyl-2-pyrrolidinyl)methoxy]-4-pyrimidinyl]-4-(4-methyl-1-piperazinyl)-4-pipendinyl]methyl]-4-pyridinecarboxamide] | 80 |
| COc1cc(C)c(S(=O)(=O)N(C)C(COc2nccc(N3CCN(C4CCN(C)CC4)CC3)n2)c2ccccc2)c(C)c1 (stereo not shown) [G_CC-059, 4-methoxy-N,2,6-trimethyl-N-[2-[[4-[4-(1-methyl-4-pipendinyl)-1-piperazinyl]-2-pyrimidinyl]oxy]-1-phenylethyl]benzenesulfonamide] | 98 |

Same assay, conditions: CHO-K1, % inhibition rat B1R at 10 μM, read-out: % inh. (rat B1R) 10 μM

| Structure (SMILES) | inhibition at 10 µM [%] |
| --- | --- |
| COc1cc(C)c(S(=O)(=O)N2CCCCC2COc2nccc(N3CCC4(CC3)CCN(c3ccc(F)cc3)C4=O)n2)c(C)c1 (stereo not shown) [G_CC-038, 3-(4-fluorophenyl)-8-[2-[[1-(4-methoxy-2,6-dimethylphenyl)sulfonyl-2-piperidinyl]methoxy]-4-pyrimidinyl]-3,8-diazaspiro[4.5]decan-4-one] | 94 |
| COc1cc(C)c(S(=O)(=O)N(C)CCOc2nccc(N3CCC4(CC3)CCN(c3ccc(F)cc3)C4=O)n2)c(C)c1 [G_CC-042, N-[2-[[4-[3-(4-fluorophenyl)-4-oxo-3,8-diazaspiro[4.5]decan-8-yl]-2-pyrimidinyl]oxy]ethyl]-4-methoxy-N,2,6-trimethylbenzenesulfonamide] | 87 |
| COc1cc(C)c(S(=O)(=O)N(C)CCOc2nccc(N3CCC4(CC3)C(=O)NCC4c3cccc(C(F)(F)F)c3)n2)c(C)c1 (stereo not shown) [G_CC-043, 4-methoxy-N,2,6-trimethyl-N-[2-[[4-[4-oxo-1-[3-(trifluoromethyl)phenyl]-3,8-diazaspiro[4.5]decan-8-yl]-2-pyrimidinyl]oxy]ethyl]benzenesulfonamide] | 70 |
| COc1cc(C)c(S(=O)(=O)N(C)CCOc2nccc(N3CCC4(CC3)C(=O)N(C)CC4c3ccc(F)cc3)n2)c(C)c1 (stereo not shown) [G_CC-044, N-[2-[[4-[1-(4-fluorophenyl)-3-methyl-4-oxo-3,8-diazaspiro[4.5]decan-8-yl]-2-pyrimidinyl]oxy]ethyl]-4-methoxy-N,2,6-trimethylbenzenesulfonamide] | 68 |
| COc1cc(C)c(S(=O)(=O)N(C)CCOc2nccc(N3CCC4(CCN(Cc5ccc(F)cc5)C4=O)CC3)n2)c(C)c1 [G_CC-045, N-[2-[[4-[3-[(4-fluorophenyl)methyl]-4-oxo-3,8-diazaspiro[4.5]decan-8-yl]-2-pyrimidinyl]oxy]ethyl]-4-methoxy-N,2,6-trimethylbenzenesulfonamide] | 96 |
| COc1cc(C)c(S(=O)(=O)N(C)CCOc2nccc(N3CCC4(CCN(Cc5ccccc5)C4=O)CC3)n2)c(C)c1 [G_CC-046, N-[2-[[4-(3-benzyl-4-oxo-3,8-diazaspiro[4.5]decan-8-yl)-2-pyrimidinyl]oxy]ethyl]-4-methoxy-N,2,6-trimethylbenzenesulfonamide] | 96 |
| COc1cc(C)c(S(=O)(=O)N(C)C(COc2nccc(N3CCC4(CCN(Cc5ccccc5)C4=O)CC3)n2)c2ccccc2)c(C)c1 (stereo not shown) [G_CC-061, N-[2-[[4-(3-benzyl-4-oxo-3,8-diazaspiro[4.5]decan-8-yl)-2-pyrimidinyl]oxy]-1-phenylethyl]-4-methoxy-N,2,6-trimethylbenzenesulfonamide] | 81 |

Next, values leading:

| inhibition at 10 µM [%] | Structure (SMILES) |
| --- | --- |
| 68 | COc1cc(C)c(S(=O)(=O)N2CCC[C@H]2COc2nccc(N3CCC4(CC3)OCc3ccccc34)n2)c(C)c1 [G_CC-033, 1′-[2-[[(2S)-1-(4-methoxy-2,6-dimethylphenyl)sulfonyl-2-pyrrolidinyl]methoxy]-4-pyrimidinyl]spiro[1H-isobenzofuran-3,4′-piperidine]] |
| 93 | COc1cc(C)c(S(=O)(=O)N2CCC[C@H]2COc2nccc(N3CCC(n4c(=O)[nH]c5cc(Cl)ccc54)CC3)n2)c(C)c1 [G_CC-034, 6-chloro-3-[1-[2-[[(2S)-1-(4-methoxy-2,6-dimethylphenyl)sulfonyl-2-pyrrolidinyl]methoxy]-4-pyrimidinyl]-4-piperidinyl]-1H-benzimidazol-2-one] |
| 72 | COc1cc(C)c(S(=O)(=O)N2CCC[C@H]2COc2nccc(N3CCC4(CC3)C(=O)NCC4c3cccc(C(F)(F)F)c3)n2)c(C)c1 (stereo partly drawn) [G_CC-049, 8-[2-[[(2S)-1-(4-methoxy-2,6-dimethylphenyl)sulfonyl-2-pyrrolidinyl]methoxy]-4-pyrimidinyl]-1-[3-(trifluoromethyl)phenyl]-3,8-diazaspiro[4.5]decan-4-one] |
| 73 | COc1cc(C)c(S(=O)(=O)N2CCC[C@H]2COc2nccc(N3CCC4(CC3)C(=O)N(C)CC4c3ccc(F)cc3)n2)c(C)c1 (stereo partly drawn) [G_CC-050, 1-(4-fluorophenyl)-8-[2-[[(2S)-1-(4-methoxy-2,6-dimethylphenyl)sulfonyl-2-pyrrolidinyl]methoxy]-4-pyrimidinyl]-3-methyl-3,8-diazaspiro[4.5]decan-4-one] |
| 96 | COc1cc(C)c(S(=O)(=O)N2CCC[C@H]2COc2nccc(N3CCC4(CCN(Cc5ccccc5)C4=O)CC3)n2)c(C)c1 [G_CC-053, 3-benzyl-8-[2-[[(2S)-1-(4-methoxy-2,6-dimethylphenyl)sulfonyl-2-pyrrolidinyl)methoxy]-4-pyrimidinyl]-3,8-diazaspiro[4.5]decan-4-one] |
| 98 | COc1cc(C)c(S(=O)(=O)N2CCCCC2COc2nccc(N3CC4CC3CN4Cc3ccncc3)n2)c(C)c1 (stereo not shown) [G_CC-056, 5-[2-[[1-(4-methoxy-2,6-dimethylphenyl)sulfonyl-2-piperidinyl]methoxy]-4-pyrimidinyl]-2-(4-pyridylmethyl)-2,5-diazabicyclo[2.2.1]heptane] |
| 90 | COc1cc(C)c(S(=O)(=O)N2CCCC(Oc3nccc(N4CC5CC4CN5Cc4ccncc4)n3)C2)c(C)c1 (stereo not shown) [G_CC-057, 5-[2-[[1-(4-methoxy-2,6-dimethylphenyl)sulfonyl-3-piperidinyl]oxy]-4-pyrimidinyl]-2-(4-pyridylmethyl)-2,5-diazabicyclo[2.2.1]heptane] |
| 93 | COc1cc(C)c(S(=O)(=O)N2CCC[C@H]2COc2nccc(N3CC4CC3CN4Cc3ccncc3)n2)c(C)c1 (stereo partly drawn) [G_CC-058, 5-[2-[[(2S)-1-(4-methoxy-2,6-dimethylphenyl)sulfonyl-2-pyrrolidinyl)methoxy]-4-pyrimidinyl]-2-(4-pyridylmethyl)-2,5-diazabicyclo[2.2.1]heptane] |
